In publication PMC10581904, “Structural basis for abscisic acid efflux mediated by ABCG25 in Arabidopsis thaliana” (Nature Plants, 2023):
Substitutions are numbered along the chain they refer to. Names and notes keep the numbering of the source.

Columns and labels:
ABCG25 [1] = biological target: T1, ABCG25 (Arabidopsis thaliana, UniProt Q84TH5); assay: stimulation of ATPase activity (colorimetric Pi release), allosteric sigmoidal fit; format: biochemical; design: full-length, N-terminal Flag tag, baculovirus / Sf9 cells, homodimer, purified in DDM or digitonin (with CHS extraction)
T1 sequence (Q84TH5 1-662): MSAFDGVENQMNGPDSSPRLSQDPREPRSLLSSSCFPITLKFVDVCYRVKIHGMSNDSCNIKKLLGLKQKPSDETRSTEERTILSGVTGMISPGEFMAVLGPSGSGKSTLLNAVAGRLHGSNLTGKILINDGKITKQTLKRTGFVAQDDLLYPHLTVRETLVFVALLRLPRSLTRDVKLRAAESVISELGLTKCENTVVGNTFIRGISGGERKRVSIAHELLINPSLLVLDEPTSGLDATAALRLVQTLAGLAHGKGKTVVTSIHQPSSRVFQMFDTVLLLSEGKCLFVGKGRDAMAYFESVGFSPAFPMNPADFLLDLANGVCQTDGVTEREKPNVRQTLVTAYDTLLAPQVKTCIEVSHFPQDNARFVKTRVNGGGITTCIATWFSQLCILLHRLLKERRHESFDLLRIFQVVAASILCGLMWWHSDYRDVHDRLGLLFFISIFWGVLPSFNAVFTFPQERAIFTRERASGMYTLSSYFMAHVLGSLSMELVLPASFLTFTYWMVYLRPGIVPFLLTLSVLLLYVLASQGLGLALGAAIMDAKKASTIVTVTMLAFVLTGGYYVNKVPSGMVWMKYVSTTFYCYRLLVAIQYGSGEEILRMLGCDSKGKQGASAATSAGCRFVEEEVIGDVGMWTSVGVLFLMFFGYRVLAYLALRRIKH

ABCG25 [2] = biological target: T1, ABCG25; assay: [3H]-ABA loading and efflux assays in Sf9 cells; format: cell-based; design: full-length, N-terminal Flag tag, baculovirus / Sf9 cells; details: 6.6 nM, pH 5.5; labelled compound
ABCG25 [3] = biological target: T1, ABCG25; assay: ATPase activity in liposomes reconstituted with or without cholesterol; format: biochemical; design: full-length, N-terminal Flag tag, baculovirus / Sf9 cells, homodimer, purified in DDM or digitonin (with CHS extraction); details: lipid:cholesterol 9:1 (w/w), proteoliposomes; direct action not proven (sterol identity in the cavity not settled)
[4] = biological target: the molecule itself; assay: cryo-EM structure; single particle analysis of purified ABCG25WT in 25 mM HEPES-NaOH pH 7.4, 150 mM NaCl, 0.03% digitonin; apo or with 2 mM ABA; C2 symmetry applied
[5] = substrate: Nc1ncnc2c1ncn2[C@@H]1O[C@H](COP(=O)(O)OP(=O)(O)OP(=O)(O)O)[C@@H](O)[C@H]1O; assay: ATPase activity (colorimetric Pi release), Michaelis-Menten fit; format: biochemical, Arabidopsis thaliana; details: 10 mM MgCl2, pH 7.4, 37 °C, detergent micelle (0.01% DDM), no ABA
[6] = biological target: the molecule itself; assay: cryo-EM structure; single particle analysis of purified E232Q ABCG25 in digitonin, incubated with 5 mM ATP and 10 mM MgCl2 on ice for 60 min

## CC1=CC(=O)CC(C)(C)[C@@]1(O)/C=C/C(C)=C/C(=O)O [ABA, (S)-(+)-Abscisic acid]
ABCG25 [1]
  EC50: 680 nM

## CC1=CC(=O)CC(C)(C)[C@@]1(O)/C=C/C(C)=C\C(=O)O [[3H]-ABA]
ABCG25 [2]
  residual [3H]-ABA: residual [^3H]-ABA substantially decreased in cells expressing ABCG25

## CC(C)CCC[C@@H](C)[C@H]1CC[C@H]2[C@@H]3CC=C4C[C@@H](O)CC[C@]4(C)[C@H]3CC[C@]12C [cholesterol]
ABCG25 [3]
  ATPase activity: cholesterol was added during liposomes reconstitution, the ATPase activity of ABCG25 was significantly reduced

B1: wild-type ABCG25 from Arabidopsis thaliana (natural protein, UniProt Q84TH5 1-662, looked up)
chain: T1 sequence (Q84TH5 1-662)
notes: ABCG25, Arabidopsis thaliana, UniProt Q84TH5, full length; Homodimer of a half-transporter (one NBD and one TMD per chain); No cleavage of the Flag tag is described; the protein was eluted with Flag peptide; also called ABCG25WT; WT
[4]
  stoichiometry N: 2
[5]
  Km: 790 µM

B2: ABCG25 E232Q catalytic mutant (natural protein, Arabidopsis thaliana, UniProt Q84TH5 1-662, looked up)
chain: T1 sequence (Q84TH5 1-662) with E232Q
notes: ABCG25, Arabidopsis thaliana, UniProt Q84TH5, full length, with E232Q in the Walker B motif of the NBD; Made and purified in the same way as the wild type; incubated with ATP and Mg2+ before grid preparation; also called ABCG25EQ; E232Q ABCG25
[6]
  stoichiometry N: 2
